Test results from the NIST ThermoML archive (doi:10.1021/je060429r).
Several values for one entry are separate records, joined by “and”; a condition that tells them apart may be missing. Equal values may be shown once.

Conditions: Transpiration method

Oc1cccc(Cl)c1Cl [2,3-dichlorophenol]
Conditions	vapor or sublimation pressure [kPa]
294.3 K, Crystal	0.0078
297.3 K, Crystal	0.0107
300.2 K, Crystal	0.0149
303.2 K, Crystal	0.0192
306.2 K, Crystal	0.0267
309.2 K, Crystal	0.0351
312.2 K, Crystal	0.0482
315.2 K, Crystal	0.0633
318.1 K, Crystal	0.0798
321.2 K, Crystal	0.1081
324.3 K, Crystal	0.1429
327.3 K, Crystal	0.1835
331.2 K, Liquid	0.2449
334.3 K, Liquid	0.2946
337.2 K, Liquid	0.3508
340.3 K, Liquid	0.4132
343.2 K, Liquid	0.4874
346.2 K, Liquid	0.5745
349.2 K, Liquid	0.6662
352.1 K, Liquid	0.7881
355.2 K, Liquid	0.9247
358.2 K, Liquid	1.078

Oc1c(Cl)cc(Cl)cc1Cl [2,4,6-trichlorophenol]
Conditions	vapor or sublimation pressure
299.4 K, Crystal	0.00177 kPa
302.3 K, Crystal	0.00245 kPa
305.2 K, Crystal	0.00319 kPa
308.3 K, Crystal	0.0044 kPa
311.3 K, Crystal	0.00593 kPa
314.3 K, Crystal	0.00805 kPa
316.8 K, Crystal	0.01044 kPa and 0.01061 kPa
317.3 K, Crystal	0.01125 kPa
320.3 K, Crystal	0.015 kPa
323.3 K, Crystal	0.02013 kPa
326.3 K, Crystal	0.02645 kPa
329.4 K, Crystal	0.03488 kPa
332.5 K, Crystal	0.04531 kPa
335.5 K, Crystal	0.05882 kPa
338.2 K, Crystal	0.07513 kPa
340.3 K, Crystal	0.08978 kPa
342.8 K, Liquid	0.1027 kPa
343.2 K, Liquid	0.1041 kPa
343.8 K, Liquid	0.1081 kPa
345.2 K, Liquid	0.1191 kPa
346.3 K, Liquid	0.1271 kPa
347.3 K, Liquid	0.1317 kPa
348.3 K, Liquid	0.1419 kPa
348.9 K, Liquid	0.1495 kPa
350.4 K, Liquid	0.1613 kPa
351.4 K, Liquid	0.1716 kPa
353.3 K, Liquid	0.1898 kPa
353.9 K, Liquid	0.1975 kPa
354.4 K, Liquid	0.2102 kPa
356.4 K, Liquid	0.2268 kPa
357.5 K, Liquid	0.2519 kPa
359 K, Liquid	0.2809 kPa
359.4 K, Liquid	0.2784 kPa
360.5 K, Liquid	0.2994 kPa
362.5 K, Liquid	0.3322 kPa
363.2 K, Liquid	0.3412 kPa
364.1 K, Liquid	0.3663 kPa
365.5 K, Liquid	0.3878 kPa
366.3 K, Liquid	0.4095 kPa
368.1 K, Liquid	0.4623 kPa
368.6 K, Liquid	0.463 kPa
369.4 K, Liquid	0.4939 kPa
372.4 K, Liquid	0.5714 kPa
373.2 K, Liquid	0.6103 kPa and 0.6087 kPa
375.4 K, Liquid	0.6794 kPa

Oc1ccc(Cl)cc1Cl [2,4-dichlorophenol]
Conditions	vapor or sublimation pressure [kPa]
278.2 K, Crystal	0.00175
283.3 K, Crystal	0.00312
289.3 K, Crystal	0.00626
294.4 K, Crystal	0.01082
297.3 K, Crystal	0.01464
300.4 K, Crystal	0.02025
303.3 K, Crystal	0.02801
306.3 K, Crystal	0.03848
309.4 K, Crystal	0.05208
312.4 K, Crystal	0.06848
315.2 K, Crystal	0.09034
317.2 K, Liquid	0.1061
320.3 K, Liquid	0.1326
323.2 K, Liquid	0.1612
326.1 K, Liquid	0.1933
329.2 K, Liquid	0.2419
332.2 K, Liquid	0.2831
335.2 K, Liquid	0.3393
338.2 K, Liquid	0.4027
341.2 K, Liquid	0.4846
344.2 K, Liquid	0.5835

Oc1cc(Cl)ccc1Cl [2,5-dichlorophenol]
Conditions	vapor or sublimation pressure [kPa]
294.3 K, Crystal	0.0089
297.3 K, Crystal	0.0122
300.4 K, Crystal	0.0168
303.3 K, Crystal	0.0223
306.3 K, Crystal	0.0302
309.2 K, Crystal	0.0399
312.2 K, Crystal	0.0532
315.2 K, Crystal	0.0708
318.3 K, Crystal	0.0944
321.3 K, Crystal	0.1257
324.4 K, Crystal	0.1636
327.4 K, Crystal	0.2133
333.3 K, Liquid	0.3198
337.2 K, Liquid	0.3996
340.2 K, Liquid	0.4726
343.2 K, Liquid	0.5513
346.2 K, Liquid	0.6514
349.2 K, Liquid	0.7643
352.2 K, Liquid	0.894
355.2 K, Liquid	1.048
358.1 K, Liquid	1.204
361.2 K, Liquid	1.403

Oc1c(Cl)cccc1Cl [2,6-dichlorophenol]
Conditions	vapor or sublimation pressure [kPa]
298.5 K, Crystal	0.0073
301.6 K, Crystal	0.01
304.6 K, Crystal	0.0137
307.4 K, Crystal	0.0183
310.4 K, Crystal	0.0245
313.4 K, Crystal	0.0331
316.4 K, Crystal	0.0437
319.4 K, Crystal	0.0591
322.4 K, Crystal	0.0774
325.4 K, Crystal	0.1006
328.4 K, Crystal	0.1312
331.3 K, Crystal	0.1685
341.2 K, Liquid	0.3444
344.7 K, Liquid	0.4173
347.3 K, Liquid	0.4838
350.3 K, Liquid	0.5727
353.3 K, Liquid	0.6745
356.3 K, Liquid	0.7745
360.3 K, Liquid	0.9734
363.3 K, Liquid	1.143
366.3 K, Liquid	1.315
371.4 K, Liquid	1.664

Oc1ccccc1Cl [2-chlorophenol]
Liquid
Conditions	vapor or sublimation pressure [kPa]
288.4 K	0.0863
291.3 K	0.1102
294.3 K	0.1378
297.3 K	0.1681
300.3 K	0.2059
303.3 K	0.2559
306.2 K	0.3083
309.2 K	0.3763
312.2 K	0.4633
315.2 K	0.5579
318.2 K	0.6649
321.2 K	0.7992

Oc1ccc(Cl)c(Cl)c1 [3,4-dichlorophenol]
Conditions	vapor or sublimation pressure [kPa]
291.4 K, Crystal	0.00027
294.3 K, Crystal	0.0004
300.3 K, Crystal	0.00086
303.5 K, Crystal	0.00121
306.7 K, Crystal	0.00177
309.5 K, Crystal	0.00247
314.3 K, Crystal	0.00423
317.2 K, Crystal	0.00587
320.4 K, Crystal	0.00806
323.3 K, Crystal	0.01069
326.3 K, Crystal	0.01474
329.3 K, Crystal	0.01992
332.3 K, Crystal	0.02618
335.3 K, Crystal	0.03423
337.3 K, Crystal	0.04096
341.3 K, Liquid	0.057
344.3 K, Liquid	0.0703
347.2 K, Liquid	0.0854
350.3 K, Liquid	0.1055
353.2 K, Liquid	0.127
356.3 K, Liquid	0.1544
359.2 K, Liquid	0.1858
362.2 K, Liquid	0.223
365.4 K, Liquid	0.2696
368.4 K, Liquid	0.3217

Oc1cccc(Cl)c1 [3-chlorophenol]
Conditions	vapor or sublimation pressure [kPa]
275.3 K, Crystal	0.00082
276.6 K, Crystal	0.00095
278.3 K, Crystal	0.00115
280.3 K, Crystal	0.00149
283.2 K, Crystal	0.00212
285.2 K, Crystal	0.00262
288.3 K, Crystal	0.00366
291.3 K, Crystal	0.00509
294.3 K, Crystal	0.00721
297.3 K, Crystal	0.00999
300.3 K, Crystal	0.01323
302.2 K, Crystal	0.01626
306 K, Crystal	0.02395
308.3 K, Liquid	0.0294
311.1 K, Liquid	0.0361
314.2 K, Liquid	0.0455
317.2 K, Liquid	0.058
320.3 K, Liquid	0.073
323.2 K, Liquid	0.0905
326.2 K, Liquid	0.1116
329.2 K, Liquid	0.1366
332.2 K, Liquid	0.1669
335.2 K, Liquid	0.2002

Oc1ccc(Cl)cc1 [4-chlorophenol]
Conditions	vapor or sublimation pressure [kPa]
283.2 K, Crystal	0.00132
288.2 K, Crystal	0.00236
291.2 K, Crystal	0.00332
294.2 K, Crystal	0.00459
297.2 K, Crystal	0.00622
300.2 K, Crystal	0.00839
303.2 K, Crystal	0.01163
306.2 K, Crystal	0.01571
309.2 K, Crystal	0.02076
311.2 K, Crystal	0.02535
313.2 K, Crystal	0.03092
318.2 K, Liquid	0.0485
321.2 K, Liquid	0.0615
324.2 K, Liquid	0.0754
327.2 K, Liquid	0.0926
330.2 K, Liquid	0.1141
333.2 K, Liquid	0.1388
336.2 K, Liquid	0.1699
339.2 K, Liquid	0.2022
342.2 K, Liquid	0.2534
345.2 K, Liquid	0.3058
348.2 K, Liquid	0.3684
351.2 K, Liquid	0.4409

Clc1c(Cl)c(Cl)c(Cl)c(Cl)c1Cl [hexachlorobenzene]
Crystal
Conditions	vapor or sublimation pressure [kPa]
358 K	0.00144
362.9 K	0.00216
368.9 K	0.00373
373.1 K	0.00519
377.8 K	0.00771
382.9 K	0.01123
389 K	0.01836
392.8 K	0.0238
397.9 K	0.03341
402.8 K	0.04901

Oc1c(Cl)c(Cl)c(Cl)c(Cl)c1Cl [pentachlorophenol]
Crystal
Conditions	vapor or sublimation pressure [kPa]
348.1 K	0.00127
353.1 K	0.00206
358 K	0.00304
363 K	0.00483
367.8 K	0.00681
371.9 K	0.00975
378.1 K	0.01517
383 K	0.02172
388.9 K	0.03268
393.2 K	0.04374
397.8 K	0.06045
399.8 K	0.07143
403.2 K	0.09099
